# According to PubChem BioAssay AID328 (DTP/NCI, 2004):
# “And” between values parts separate entries of the source, which are not always exact repeats. Equal entries are not always repeated. Inconclusive results and toxic doses are left out.
# System: BDF1 mice, P388 leukemia ip, median survival T/C
# Assay: NCI In Vivo Anticancer Drug Screen. Data for tumor model P388 Leukemia (intraperitoneal) in B6D2F1 (BDF1) mice
# Conditions: endpoint: median survival time, higher = longer survival
# Summary of the method: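 Mice carrying the transplantable tumour receive compound or vehicle. Survival is followed in each arm, and the treated measure is divided by the vehicle measure.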
# [1] = dose: 100.0 mg/kg/injection, schedule: Q01DX009 (ip), vehicle: Klucel (hydroxypropylcellulose) (HPC)
# [2] = dose: 100.0 mg/kg/injection, schedule: Q04DX003 (ip), vehicle: Klucel (hydroxypropylcellulose) (HPC)
# [3] = dose: 200.0 mg/kg/injection, schedule: Q01DX009 (ip), vehicle: Klucel (hydroxypropylcellulose) (HPC)
# [4] = dose: 200.0 mg/kg/injection, schedule: Q04DX003 (ip), vehicle: Klucel (hydroxypropylcellulose) (HPC)
# [5] = dose: 400.0 mg/kg/injection, schedule: Q04DX003 (ip), vehicle: Klucel (hydroxypropylcellulose) (HPC)
# [6] = dose: 50.0 mg/kg/injection, schedule: Q01DX009 (ip), vehicle: saline with Tween-80
# [7] = dose: 100.0 mg/kg/injection, schedule: Q01DX009 (ip), vehicle: saline with Tween-80
# [8] = dose: 200.0 mg/kg/injection, schedule: Q01DX009 (ip), vehicle: saline with Tween-80
# [9] = dose: 100.0 mg/kg/injection, schedule: Q04DX003 (ip), vehicle: saline with Tween-80
# [10] = dose: 50.0 mg/kg/injection, schedule: Q04DX003 (ip), vehicle: saline with Tween-80
# [11] = dose: 100.0 mg/kg/injection, schedule: Q01DX001 (ip), vehicle: Klucel (hydroxypropylcellulose) (HPC)
# [12] = dose: 200.0 mg/kg/injection, schedule: Q01DX001 (ip), vehicle: Klucel (hydroxypropylcellulose) (HPC)
# [13] = dose: 400.0 mg/kg/injection, schedule: Q01DX001 (ip), vehicle: Klucel (hydroxypropylcellulose) (HPC)
# [14] = dose: 25.0 mg/kg/injection, schedule: Q01DX009 (ip), vehicle: saline with Tween-80
smiles,measurement,setting,value
Nc1ccc2cn[nH]c2c1,T/C,"dose: 25.0 mg/kg/injection, schedule: Q01DX009 (ip), vehicle: water",99 % of control
same,T/C,"dose: 50.0 mg/kg/injection, schedule: Q01DX009 (ip), vehicle: water",103 % of control
same,T/C,"dose: 50.0 mg/kg/injection, schedule: Q04DX003 (ip), vehicle: water",103 % of control
same,T/C,"dose: 100.0 mg/kg/injection, schedule: Q01DX009 (ip), vehicle: water",89 % of control
same,T/C,"dose: 100.0 mg/kg/injection, schedule: Q04DX003 (ip), vehicle: water",116 % of control
same,T/C,"dose: 200.0 mg/kg/injection, schedule: Q01DX009 (ip), vehicle: water",94 % of control
same,T/C,"dose: 200.0 mg/kg/injection, schedule: Q04DX003 (ip), vehicle: water",110 % of control
same,T/C,"dose: 400.0 mg/kg/injection, schedule: Q01DX009 (ip), vehicle: water",94 % of control
same,T/C,"dose: 400.0 mg/kg/injection, schedule: Q04DX003 (ip), vehicle: water",116 % of control
O=[N+]([O-])c1ccc(SNc2ccc(O)cc2)cc1[N+](=O)[O-],T/C,[1],100 % of control
same,T/C,[2],100 % of control
same,T/C,[3],90 % of control
same,T/C,[4],104 % of control
same,T/C,"dose: 400.0 mg/kg/injection, schedule: Q01DX009 (ip), vehicle: Klucel (hydroxypropylcellulose) (HPC)",109 % of control
same,T/C,[5],104 % of control
O=C(O)Cc1c[nH]c2cccc(Cl)c12,T/C,[6],93 % of control
same,T/C,[7],98 % of control
same,T/C,[8],100 % of control
COc1cc(/C=C/c2ccc3ccccc3n2)cc(OC)c1OC,T/C,[9],100 % of control
COc1cc(C)c(Cl)c(C)c1C(C)=O,T/C,"dose: 50.0 mg/kg/injection, schedule: Q04DX003 (ip), vehicle: Klucel (hydroxypropylcellulose) (HPC)",104 % of control
same,T/C,[2],95 % of control
same,T/C,[4],86 % of control
NC(=S)NN1C2CSC1CS2,T/C,"dose: 22.5 mg/kg/injection, schedule: Q01DX009 (ip), vehicle: saline with Tween-80",100 % of control
same,T/C,"dose: 45.0 mg/kg/injection, schedule: Q01DX009 (ip), vehicle: saline with Tween-80",110 % of control
same,T/C,"dose: 90.0 mg/kg/injection, schedule: Q01DX009 (ip), vehicle: saline with Tween-80",108 % of control
O=C(CNC(=O)n1ccnc1)N/N=C/c1ccccc1O,T/C,"dose: 50.0 mg/kg/injection, schedule: Q01DX005 (ip), vehicle: saline with Tween-80",102 % of control
same,T/C,"dose: 100.0 mg/kg/injection, schedule: Q01DX005 (ip), vehicle: saline with Tween-80",98 % of control
same,T/C,"dose: 200.0 mg/kg/injection, schedule: Q01DX005 (ip), vehicle: saline with Tween-80",100 % of control
CNC(=O)O/N=C(\CN=[N+]=[N-])C(C)(C)C,T/C,"dose: 0.2 mg/kg/injection, schedule: Q01DX009 (ip), vehicle: saline",92 % of control
same,T/C,"dose: 0.39 mg/kg/injection, schedule: Q01DX009 (ip), vehicle: saline",88 % of control
same,T/C,"dose: 0.78 mg/kg/injection, schedule: Q01DX009 (ip), vehicle: saline",122 % of control
COC(=O)/C(C#N)=C\c1ccccc1,T/C,[10],104 % of control
same,T/C,[9],109 % of control
CCOc1nc(=O)n(C2CCOC2=O)cc1F (centres undefined),T/C,[11],100 % of control
same,T/C,[12],100 % of control
same,T/C,[13],104 % of control
Cc1ccc(S(=O)(=O)c2ccc([N+](=O)[O-])c3no[n+]([O-])c23)cc1,T/C,[14],104 % of control
same,T/C,[6],108 % of control
same,T/C,[7],116 % of control
CC1(C)O[Te]2(OC1(C)C)OC(C)(C)C(C)(C)O2,T/C,"dose: 12.5 mg/kg/injection, schedule: Q01DX001 (ip), vehicle: saline with Tween-80",104 % of control
same,T/C,"dose: 25.0 mg/kg/injection, schedule: Q01DX001 (ip), vehicle: saline with Tween-80",113 % of control
NC(=O)N/N=C1\CCCC(CCC(=O)O)C1 (centres undefined),T/C,[11],96 % of control
same,T/C,[12],100 % of control
same,T/C,[13],100 % of control
COc1cc(/C=N/OCc2cc3c(cc2Cl)OCO3)cc(OC)c1OC,T/C,"dose: 100.0 mg/kg/injection, schedule: Q04DX003 (ip), vehicle: saline sonified",95 % of control
same,T/C,"dose: 200.0 mg/kg/injection, schedule: Q04DX003 (ip), vehicle: saline sonified",90 % of control
same,T/C,"dose: 400.0 mg/kg/injection, schedule: Q04DX003 (ip), vehicle: saline sonified",104 % of control
N#CO,T/C,"dose: 33.0 mg/kg/injection, schedule: Q01DX009 (ip), vehicle: saline",103 % of control (2×) and 113 % of control
same,T/C,"dose: 42.0 mg/kg/injection, schedule: Q01DX009 (ip), vehicle: saline",109 % of control
same,T/C,"dose: 50.0 mg/kg/injection, schedule: Q01DX009 (ip), vehicle: saline",96 % of control and 122 % of control
same,T/C,"dose: 56.0 mg/kg/injection, schedule: Q01DX009 (ip), vehicle: saline",90 % of control
same,T/C,"dose: 75.0 mg/kg/injection, schedule: Q01DX009 (ip), vehicle: saline",100 % of control and 121 % of control
same,T/C,"dose: 100.0 mg/kg/injection, schedule: Q01DX009 (ip), vehicle: saline",109 % of control
C[C@]12C=CC(=O)C=C1CC[C@H]1[C@@H]3CCC(=O)O[C@@]3(C)CC(=O)[C@@]12F,T/C,[7],100 % of control
same,T/C,[8],100 % of control
same,T/C,"dose: 400.0 mg/kg/injection, schedule: Q01DX009 (ip), vehicle: saline with Tween-80",100 % of control
Cc1cc(O)c(C(c2ccccc2)c2c(O)cc(C)[nH]c2=O)c(=O)[nH]1,T/C,[6],94 % of control
same,T/C,[7],86 % of control
O=C(O)/C=C/c1cc2c(cc1[N+](=O)[O-])OCO2,T/C,[1],88 % of control
same,T/C,[2],91 % of control
same,T/C,[3],96 % of control
same,T/C,[4],95 % of control
same,T/C,[5],87 % of control
C[C@@H]1C[C@@H]([C@@H](CC2CC(=O)NC(=O)C2)OC(=O)CC(=O)c2ccccc2)C(=O)[C@@H](C)C1,T/C,"dose: 11.0 mg/kg/injection, schedule: Q01DX009 (ip), vehicle: saline with Tween-80",120 % of control
same,T/C,[14],165 % of control
same,T/C,"dose: 25.0 mg/kg/injection, schedule: Q04DX003 (ip), vehicle: saline with Tween-80",109 % of control
same,T/C,"dose: 37.5 mg/kg/injection, schedule: Q01DX009 (ip), vehicle: saline with Tween-80",160 % of control
same,T/C,[6],95 % of control
same,T/C,[10],118 % of control
CC(C)=NOC(=O)Nc1ccc(Cl)cc1,T/C,"dose: 25.0 mg/kg/injection, schedule: Q01DX009 (ip), vehicle: Klucel (hydroxypropylcellulose) (HPC)",111 % of control
same,T/C,"dose: 50.0 mg/kg/injection, schedule: Q01DX009 (ip), vehicle: Klucel (hydroxypropylcellulose) (HPC)",118 % of control
same,T/C,[1],124 % of control
CCC12C=CCN3CCC4(c5c(C(c6ccc(OC)cc6)c6c(CN(C)C)c7ccccc7n6C)cc(OC)cc5N(C)C4C(O)(C(=O)OC)C1OC(C)=O)C32 (centres undefined),T/C,"dose: 0.3 mg/kg/injection, schedule: Q01DX009 (ip), vehicle: saline",93 % of control
same,T/C,"dose: 0.6 mg/kg/injection, schedule: Q01DX009 (ip), vehicle: saline",98 % of control
same,T/C,"dose: 4.0 mg/kg/injection, schedule: Q01DX009 (ip), vehicle: saline",97 % of control
same,T/C,"dose: 8.0 mg/kg/injection, schedule: Q01DX009 (ip), vehicle: saline",96 % of control
same,T/C,"dose: 15.0 mg/kg/injection, schedule: Q01DX009 (ip), vehicle: saline",107 % of control
same,T/C,"dose: 16.0 mg/kg/injection, schedule: Q01DX009 (ip), vehicle: saline",95 % of control
same,T/C,"dose: 60.0 mg/kg/injection, schedule: Q01DX009 (ip), vehicle: saline",123 % of control
CN(C)c1cc(Br)c(C=O)cc1[N+](=O)[O-],T/C,[2],95 % of control
same,T/C,[4],95 % of control
same,T/C,[5],100 % of control
CC(=O)CC(C)=O.CC(=O)CC(C)=O.O.O.[Co],T/C,"dose: 22.0 mg/kg/injection, schedule: Q04DX003 (ip), vehicle: saline with Tween-80",105 % of control
same,T/C,"dose: 33.0 mg/kg/injection, schedule: Q04DX003 (ip), vehicle: saline with Tween-80",113 % of control
same,T/C,"dose: 75.0 mg/kg/injection, schedule: Q04DX003 (ip), vehicle: saline with Tween-80",102 % of control
CCCCCCCCCCCCCCCCS(=O)(=O)CCO,T/C,[9],104 % of control
same,T/C,"dose: 200.0 mg/kg/injection, schedule: Q04DX003 (ip), vehicle: saline with Tween-80",91 % of control
O=NN(CCF)C(=O)NC1CCS(=O)(=O)CC1,T/C,"dose: 0.15 mg/kg/injection, schedule: Q04DX003 (ip), vehicle: saline",115 % of control
same,T/C,"dose: 0.3 mg/kg/injection, schedule: Q04DX003 (ip), vehicle: saline",120 % of control
